Experimental data as given in patent US11136325B2, “Pyrrolopyrimidine and pyrrolopyridine derivatives” (GALAPAGOS NV, priority 2017, dated 2021).

System: CFA induced hypersensitivity in rat
Experiment: CFA induced hypersensitivity in rat assessed using weight bearing method
Assay type: in vivo
Conditions: 10 mg/kg, 24 hours post CFA, 1, 2 and 4 hours post treatment
From the text: Intraplantar injection of Complete Freunds adjuvant (CFA) causes an inflammatory reaction which induces hypersensitivity and oedema, and mimics some aspects of clinical inflammatory pain. These effects can be investigated using equipment to measure weight bearing and plethysmometer.
Naive rats distribute their body weight equally between the two hind paws. However, when the injected (left) hind paw is inflamed and/or painful, the weight is re-distributed so that less weight is put on the affected paw (decrease in weight bearing on injured paw). Weight bearing through each hind limb was measured using a rat incapacitance tester (Linton Instruments, UK).
Rats were placed in the incapacitance tester with the hind paws on separate sensors and the average force exerted by both hind limbs was recorded over 4 seconds.
Base line weight bearing and paw volume readings were taken and hypersensitivity was induced via injection of CFA (Baseline weight bearing and paw volume recordings were taken prior to induction of insult. Inflammatory hypersensitivity was induced by intraplantar injection of CFA (100 μL of 1 mg/mL solution) intraplantar to the rats left hind paw.
Animals (Male, Sprague Dawley Rats (Charles River, UK), 212-260 g) were ranked and randomised to treatment groups according to the weight bearing CFA window in a Latin square design. […]

COc1ccc2c(c1)c(CC(=O)O)c(C)n2C(=O)c1ccc(Cl)cc1 [Indomethacin, reference compound] was tested, and the “hypersensitivity response (weight bearing)” value was “significantly inhibited”.
